According to ChEMBL document CHEMBL3769377, “A synthesis, in silico, in vitro and in vivo study of thieno[2,3-b]pyridine anticancer analogues” (Medchemcomm, 2015):

What was measured:
[1] = target: Serine/threonine-protein kinase pim-1 (Homo sapiens) (UniProt P11309); experiment: Inhibition of human recombinant PIM1 assessed as residual activity at 10 uM after 1 hr by qPCR analysis relative to control
[2] = target: Non-receptor tyrosine-protein kinase TYK2 (Homo sapiens) (UniProt P29597); experiment: Inhibition of human recombinant TYK2 (JH1 domain-catalytic) assessed as residual activity at 10 uM after 1 hr by qPCR analysis relative to control
[3] = target: Receptor tyrosine-protein kinase erbB-2 (Homo sapiens) (UniProt P04626); experiment: Inhibition of human recombinant ERBB2 assessed as residual activity at 10 uM after 1 hr by qPCR analysis relative to control
[4] = target: Aurora kinase A (Homo sapiens) (UniProt O14965); experiment: Inhibition of human recombinant AURKA assessed as residual activity at 10 uM after 1 hr by qPCR analysis relative to control
[5] = target: Serine/threonine-protein kinase pim-3 (Homo sapiens) (UniProt Q86V86); experiment: Inhibition of human recombinant PIM3 assessed as residual activity at 10 uM after 1 hr by qPCR analysis relative to control
[6] = target: Mitogen-activated protein kinase 9 (Homo sapiens) (UniProt P45984); experiment: Inhibition of human recombinant JNK2 assessed as residual activity at 10 uM after 1 hr by qPCR analysis relative to control
[7] = target: cAMP-dependent protein kinase catalytic subunit alpha (Homo sapiens) (UniProt P17612); experiment: Inhibition of human recombinant PKACalpha assessed as residual activity at 10 uM after 1 hr by qPCR analysis relative to control
[8] = target: Proto-oncogene tyrosine-protein kinase Src (Homo sapiens) (UniProt P12931); experiment: Inhibition of human recombinant SRC assessed as residual activity at 10 uM after 1 hr by qPCR analysis relative to control
[9] = target: Serine/threonine-protein kinase PLK1 (Homo sapiens) (UniProt P53350); experiment: Inhibition of human recombinant PLK1 assessed as residual activity at 10 uM after 1 hr by qPCR analysis relative to control
[10] = target: Dual specificity mitogen-activated protein kinase kinase 1 (Homo sapiens) (UniProt Q02750); experiment: Inhibition of human recombinant MEK1 assessed as residual activity at 10 uM after 1 hr by qPCR analysis relative to control
[11] = target: Serine/threonine-protein kinase B-raf (Homo sapiens) (UniProt P15056); experiment: Inhibition of human recombinant BRAF assessed as residual activity at 10 uM after 1 hr by qPCR analysis relative to control
[12] = target: Receptor tyrosine-protein kinase erbB-4 (Homo sapiens) (UniProt Q15303); experiment: Inhibition of human recombinant ERBB4 assessed as residual activity at 10 uM after 1 hr by qPCR analysis relative to control
[13] = target: Casein kinase I isoform delta (Homo sapiens) (UniProt P48730); experiment: Inhibition of human recombinant CSNK1D assessed as residual activity at 10 uM after 1 hr by qPCR analysis relative to control
[14] = target: MAP kinase-interacting serine/threonine-protein kinase 1 (Homo sapiens) (UniProt Q9BUB5); experiment: Inhibition of human recombinant MKNK1 assessed as residual activity at 10 uM after 1 hr by qPCR analysis relative to control
[15] = target: Phosphatidylinositol 4-phosphate 3-kinase C2 domain-containing subunit beta (Homo sapiens) (UniProt O00750); experiment: Inhibition of human recombinant PIK3C2B assessed as residual activity at 10 uM after 1 hr by qPCR analysis relative to control
[16] = target: Mitogen-activated protein kinase kinase kinase 9 (Homo sapiens) (UniProt P80192); experiment: Inhibition of human recombinant MLK1 assessed as residual activity at 10 uM after 1 hr by qPCR analysis relative to control
[17] = target: Cyclin-dependent kinase 9 (Homo sapiens) (UniProt P50750); experiment: Inhibition of human recombinant CDK9 assessed as residual activity at 10 uM after 1 hr by qPCR analysis relative to control
[18] = target: Focal adhesion kinase 1 (Homo sapiens) (UniProt Q05397); experiment: Inhibition of human recombinant FAK assessed as residual activity at 10 uM after 1 hr by qPCR analysis relative to control
[19] = target: Casein kinase I isoform gamma-2 (Homo sapiens) (UniProt P78368); experiment: Inhibition of human recombinant CSNK1G2 assessed as residual activity at 10 uM after 1 hr by qPCR analysis relative to control
[20] = target: Cyclin-dependent kinase 16 (Homo sapiens) (UniProt Q00536); experiment: Inhibition of human recombinant PCTK1 assessed as residual activity at 10 uM after 1 hr by qPCR analysis relative to control
[21] = tested on: Serine/threonine-protein kinase B-raf (Homo sapiens), P15056 [V600E]; experiment: Inhibition of human recombinant BRAF V600E mutant assessed as residual activity at 10 uM after 1 hr by qPCR analysis relative to control
[22] = target: Mitogen-activated protein kinase kinase kinase 4 (Homo sapiens) (UniProt Q9Y6R4); experiment: Inhibition of human recombinant MAP3K4 assessed as residual activity at 10 uM after 1 hr by qPCR analysis relative to control
[23] = target: ALK tyrosine kinase receptor (Homo sapiens) (UniProt Q9UM73); experiment: Inhibition of human recombinant ALK assessed as residual activity at 10 uM after 1 hr by qPCR analysis relative to control
[24] = target: Testis-specific serine/threonine-protein kinase 1 (Homo sapiens) (UniProt Q9BXA7); experiment: Inhibition of human recombinant TSSK1B assessed as residual activity at 10 uM after 1 hr by qPCR analysis relative to control
[25] = target: Platelet-derived growth factor receptor alpha (Homo sapiens) (UniProt P16234); experiment: Inhibition of human recombinant PDGFRA assessed as residual activity at 10 uM after 1 hr by qPCR analysis relative to control
[26] = target: Mitogen-activated protein kinase 8 (Homo sapiens) (UniProt P45983); experiment: Inhibition of human recombinant JNK1 assessed as residual activity at 10 uM after 1 hr by qPCR analysis relative to control
[27] = target: Serine/threonine-protein kinase DCLK1 (Homo sapiens) (UniProt O15075); experiment: Inhibition of human recombinant DCAMKL1 assessed as residual activity at 10 uM after 1 hr by qPCR analysis relative to control
[28] = target: 3-phosphoinositide-dependent protein kinase 1 (Homo sapiens) (UniProt O15530); experiment: Inhibition of human recombinant PDPK1 assessed as residual activity at 10 uM after 1 hr by qPCR analysis relative to control
[29] = target: Mitogen-activated protein kinase 11 (Homo sapiens) (UniProt Q15759); experiment: Inhibition of human recombinant p38beta assessed as residual activity at 10 uM after 1 hr by qPCR analysis relative to control
[30] = target: Rho-associated protein kinase 2 (Homo sapiens) (UniProt O75116); experiment: Inhibition of human recombinant ROCK2 assessed as residual activity at 10 uM after 1 hr by qPCR analysis relative to control
Rho-associated protein kinase 2 (Homo sapiens), sequence (O75116 whole entry, looked up): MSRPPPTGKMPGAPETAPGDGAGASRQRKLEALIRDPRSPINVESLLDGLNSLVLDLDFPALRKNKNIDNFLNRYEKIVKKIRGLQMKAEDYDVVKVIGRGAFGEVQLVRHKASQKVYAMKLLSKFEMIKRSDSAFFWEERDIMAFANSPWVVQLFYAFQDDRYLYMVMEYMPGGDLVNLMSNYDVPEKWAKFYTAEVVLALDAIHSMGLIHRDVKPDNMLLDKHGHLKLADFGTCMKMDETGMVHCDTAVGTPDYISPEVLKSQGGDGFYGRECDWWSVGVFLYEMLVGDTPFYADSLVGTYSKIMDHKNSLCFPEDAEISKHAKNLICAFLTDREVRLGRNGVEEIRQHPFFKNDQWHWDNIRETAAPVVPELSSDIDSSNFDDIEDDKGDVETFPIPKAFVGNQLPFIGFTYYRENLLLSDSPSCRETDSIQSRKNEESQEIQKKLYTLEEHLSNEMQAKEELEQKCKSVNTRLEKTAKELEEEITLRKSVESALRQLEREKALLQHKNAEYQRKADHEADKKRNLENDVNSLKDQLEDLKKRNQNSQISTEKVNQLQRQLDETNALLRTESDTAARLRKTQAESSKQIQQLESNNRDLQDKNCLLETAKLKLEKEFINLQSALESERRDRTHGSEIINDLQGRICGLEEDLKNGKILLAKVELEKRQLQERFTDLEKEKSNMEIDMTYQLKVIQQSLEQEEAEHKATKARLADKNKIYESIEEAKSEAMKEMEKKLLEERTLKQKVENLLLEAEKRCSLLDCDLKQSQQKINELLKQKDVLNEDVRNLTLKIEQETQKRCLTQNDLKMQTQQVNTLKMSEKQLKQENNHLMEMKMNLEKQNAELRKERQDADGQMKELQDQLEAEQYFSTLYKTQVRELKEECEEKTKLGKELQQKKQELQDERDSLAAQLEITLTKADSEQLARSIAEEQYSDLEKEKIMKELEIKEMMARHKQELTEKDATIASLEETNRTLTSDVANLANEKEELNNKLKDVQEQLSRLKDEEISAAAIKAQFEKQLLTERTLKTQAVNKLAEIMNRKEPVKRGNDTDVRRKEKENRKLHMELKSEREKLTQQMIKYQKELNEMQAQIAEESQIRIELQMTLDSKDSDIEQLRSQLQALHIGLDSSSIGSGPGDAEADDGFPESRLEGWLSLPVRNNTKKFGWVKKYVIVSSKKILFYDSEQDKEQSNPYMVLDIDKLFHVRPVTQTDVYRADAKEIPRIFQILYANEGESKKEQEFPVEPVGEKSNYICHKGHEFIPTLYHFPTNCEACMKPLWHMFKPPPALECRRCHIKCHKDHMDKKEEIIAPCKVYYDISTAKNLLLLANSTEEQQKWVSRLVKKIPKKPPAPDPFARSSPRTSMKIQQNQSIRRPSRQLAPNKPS

Casein kinase I isoform gamma-2 (Homo sapiens), sequence (P78368 whole entry, looked up, canonical isoform): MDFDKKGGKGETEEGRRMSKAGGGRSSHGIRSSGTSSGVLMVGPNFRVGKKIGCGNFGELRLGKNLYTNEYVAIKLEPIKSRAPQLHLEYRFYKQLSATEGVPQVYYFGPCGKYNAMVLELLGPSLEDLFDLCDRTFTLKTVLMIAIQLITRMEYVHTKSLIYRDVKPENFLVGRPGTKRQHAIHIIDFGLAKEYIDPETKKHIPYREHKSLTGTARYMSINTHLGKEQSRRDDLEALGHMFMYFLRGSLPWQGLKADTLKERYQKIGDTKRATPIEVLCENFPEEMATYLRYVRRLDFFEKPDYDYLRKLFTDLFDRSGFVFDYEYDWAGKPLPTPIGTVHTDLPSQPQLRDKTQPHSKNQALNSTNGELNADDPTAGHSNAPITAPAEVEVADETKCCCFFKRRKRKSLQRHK
Cyclin-dependent kinase 9 (Homo sapiens), sequence (P50750 whole entry): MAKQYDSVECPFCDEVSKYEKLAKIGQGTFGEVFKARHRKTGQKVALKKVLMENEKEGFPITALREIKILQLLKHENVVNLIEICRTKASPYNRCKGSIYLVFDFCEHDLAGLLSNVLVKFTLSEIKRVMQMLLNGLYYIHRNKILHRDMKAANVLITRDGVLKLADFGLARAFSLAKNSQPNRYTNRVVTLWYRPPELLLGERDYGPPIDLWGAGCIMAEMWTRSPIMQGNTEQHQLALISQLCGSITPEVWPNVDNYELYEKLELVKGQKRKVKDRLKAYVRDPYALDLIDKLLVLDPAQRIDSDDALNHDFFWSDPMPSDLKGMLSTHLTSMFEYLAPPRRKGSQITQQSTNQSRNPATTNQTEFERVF
Testis-specific serine/threonine-protein kinase 1 (Homo sapiens), sequence (Q9BXA7 whole entry): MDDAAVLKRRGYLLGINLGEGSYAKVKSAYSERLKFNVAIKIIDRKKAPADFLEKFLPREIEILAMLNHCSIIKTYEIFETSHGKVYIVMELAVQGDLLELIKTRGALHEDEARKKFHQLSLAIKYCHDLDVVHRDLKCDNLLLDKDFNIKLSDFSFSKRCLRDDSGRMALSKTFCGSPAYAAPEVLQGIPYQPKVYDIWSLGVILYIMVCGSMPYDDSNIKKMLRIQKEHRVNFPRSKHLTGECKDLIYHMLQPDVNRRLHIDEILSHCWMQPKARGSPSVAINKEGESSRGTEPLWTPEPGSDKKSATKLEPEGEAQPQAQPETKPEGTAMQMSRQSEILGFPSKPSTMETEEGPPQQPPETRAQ
Proto-oncogene tyrosine-protein kinase Src (Homo sapiens), sequence (P12931 2-536 limits assumed): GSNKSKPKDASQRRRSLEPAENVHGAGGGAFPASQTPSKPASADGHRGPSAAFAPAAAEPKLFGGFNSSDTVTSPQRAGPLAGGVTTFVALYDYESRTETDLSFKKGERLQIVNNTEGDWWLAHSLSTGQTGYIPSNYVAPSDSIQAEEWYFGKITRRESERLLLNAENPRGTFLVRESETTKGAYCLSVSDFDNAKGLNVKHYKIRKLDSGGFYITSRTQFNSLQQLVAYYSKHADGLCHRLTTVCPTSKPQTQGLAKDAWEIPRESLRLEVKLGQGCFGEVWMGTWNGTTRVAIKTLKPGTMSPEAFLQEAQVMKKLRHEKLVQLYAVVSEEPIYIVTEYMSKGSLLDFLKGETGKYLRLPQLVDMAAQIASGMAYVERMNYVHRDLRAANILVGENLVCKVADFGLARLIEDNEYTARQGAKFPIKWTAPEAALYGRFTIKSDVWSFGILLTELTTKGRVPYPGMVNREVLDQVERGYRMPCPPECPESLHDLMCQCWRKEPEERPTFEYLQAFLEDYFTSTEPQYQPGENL
Serine/threonine-protein kinase B-raf (Homo sapiens), P15056 [V600E], sequence (P15056 whole entry V600E): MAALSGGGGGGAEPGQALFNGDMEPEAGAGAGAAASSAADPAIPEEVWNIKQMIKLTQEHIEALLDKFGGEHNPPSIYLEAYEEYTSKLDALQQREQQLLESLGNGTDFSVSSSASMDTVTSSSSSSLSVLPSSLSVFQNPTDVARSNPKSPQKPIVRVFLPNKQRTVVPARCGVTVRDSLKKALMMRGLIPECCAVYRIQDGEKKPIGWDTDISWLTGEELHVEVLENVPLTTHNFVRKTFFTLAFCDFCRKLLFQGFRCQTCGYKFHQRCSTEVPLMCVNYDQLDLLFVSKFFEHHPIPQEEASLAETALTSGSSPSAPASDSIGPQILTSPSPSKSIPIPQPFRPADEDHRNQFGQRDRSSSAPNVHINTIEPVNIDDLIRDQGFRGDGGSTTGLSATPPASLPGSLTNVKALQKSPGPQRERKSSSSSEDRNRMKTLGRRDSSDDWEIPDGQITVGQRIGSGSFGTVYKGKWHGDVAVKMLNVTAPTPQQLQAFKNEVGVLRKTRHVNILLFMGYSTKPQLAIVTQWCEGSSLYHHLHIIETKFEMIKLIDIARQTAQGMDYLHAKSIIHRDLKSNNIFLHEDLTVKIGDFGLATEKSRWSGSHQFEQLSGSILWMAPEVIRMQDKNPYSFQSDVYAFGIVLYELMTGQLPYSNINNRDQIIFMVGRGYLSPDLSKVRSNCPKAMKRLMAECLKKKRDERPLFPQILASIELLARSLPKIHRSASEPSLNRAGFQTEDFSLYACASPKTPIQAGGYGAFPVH
Casein kinase I isoform delta (Homo sapiens), sequence (P48730 whole entry, looked up, canonical isoform): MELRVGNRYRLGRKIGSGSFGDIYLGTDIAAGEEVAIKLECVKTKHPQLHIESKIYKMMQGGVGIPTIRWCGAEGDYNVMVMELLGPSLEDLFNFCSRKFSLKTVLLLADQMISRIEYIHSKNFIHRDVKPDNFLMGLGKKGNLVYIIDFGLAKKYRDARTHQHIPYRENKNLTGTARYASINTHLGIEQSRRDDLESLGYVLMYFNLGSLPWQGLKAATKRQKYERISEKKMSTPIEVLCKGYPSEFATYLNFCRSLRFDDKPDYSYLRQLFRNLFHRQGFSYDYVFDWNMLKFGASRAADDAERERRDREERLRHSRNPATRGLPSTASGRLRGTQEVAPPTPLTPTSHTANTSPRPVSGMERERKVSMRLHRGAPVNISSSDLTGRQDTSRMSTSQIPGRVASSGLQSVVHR
Mitogen-activated protein kinase 8 (Homo sapiens), sequence (P45983 whole entry): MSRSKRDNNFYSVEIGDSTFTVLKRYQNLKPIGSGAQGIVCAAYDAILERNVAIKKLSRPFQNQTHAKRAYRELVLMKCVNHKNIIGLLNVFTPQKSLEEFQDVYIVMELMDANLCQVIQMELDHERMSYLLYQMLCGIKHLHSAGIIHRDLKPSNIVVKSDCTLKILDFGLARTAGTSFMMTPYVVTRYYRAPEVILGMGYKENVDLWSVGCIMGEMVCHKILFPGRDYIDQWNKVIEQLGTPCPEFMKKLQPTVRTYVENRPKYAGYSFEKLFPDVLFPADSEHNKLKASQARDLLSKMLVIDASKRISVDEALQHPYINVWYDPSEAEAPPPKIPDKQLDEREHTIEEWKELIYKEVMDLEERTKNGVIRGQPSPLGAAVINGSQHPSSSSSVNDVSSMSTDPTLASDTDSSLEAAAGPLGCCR

Question: What does the source list for `Cc1c(Cl)cccc1NC(=O)c1sc2nc3c(cc2c1N)C(=O)CC3`?
Answer: Activity [1]: 73%; Activity [2]: 94%; Activity [3]: 100%; Activity [4]: 98%; Activity [5]: 92%; Activity [6]: 93%; Activity [7]: 94%; Activity [8]: 95%; Activity [9]: 91%; Activity [10]: 100%; Activity [11]: 96%; Activity [12]: 100%; Activity [13]: 100%; Activity [14]: 100%; Activity [15]: 100%; Activity [16]: 99%; Activity [17]: 100%; Activity [18]: 100%; Activity [19]: 97%; Activity [20]: 100%; Activity [21]: 90%; Activity [22]: 96%; Activity [23]: 100%; Activity [24]: 65%; Activity [25]: 100%; Activity [26]: 100%; Activity [27]: 100%; Activity [28]: 100%; Activity [29]: 100%; Activity [30]: 100%
